According to patent publication US20130263297A1, “METHODS OF TREATING CANCER” (Cedars-Sinai Medical Center, priority 2010, published 2013):
“Also recorded” adds a separate entry of the source.

Assays:
[1] = test system: RANKL promoter in LNCaP and LNCaP-RANKL cells; assay: RANKL promoter reporter assay, LNCaP model; assay type: cell-based, human; conditions: for RANKL promoter activities in LNCaP cells: vitamin D3 and PTH stimulation
LNCaP cells = assay: EMT marker / RANKL expression and signaling by RT-PCR and Western blot, LNCaP model; assay type: cell-based, human; conditions: 20 μM cMyc inhibitor
Method: Total RNA from cells was isolated using RNeasy Mini Kit (Qiagen, Valencia, Calif.) according to manufacturer's instructions. Complementary DNA (cDNA) was generated from 3 μg of total RNA using SuperScript® III First-Strand Synthesis System (Invitrogen, Carlsbad Calif.), and 1 μl of cDNA was subjected to PCR analyses using the following primers: RANKL F: 5′-TGGATCACAGCACATCAGAGCAG-3′ (SEQ ID NO:3); RANKL R: 5′-TGGGGCTCAATCTATATCTCGAAC-3′ (SEQ ID NO:4); RANK F: 5′-GGGAAAGCACTCACAGCTAATTTG-3′ (SEQ ID NO:5); RANK R: 5′-GCACTGGCTTAAACTGTCATTCTCC-3′ (SEQ ID NO:6); OPG F: 5′-GCT AAC CTC ACC TTC GAG-3′ (SEQ ID NO:7); OPG R: 5′-TGA TTG GAC CTG GTT ACC-3′ (SEQ ID NO:8); E-cadherin F: 5′-GCCAAGCAGCAGTACATTCTACACG-3′ (SEQ ID NO:9); E-cadherin R: 5′-GCTGTTCTTCACGTGCTCAAAATCC-3′ (SEQ ID NO:10); N-cadherin F: 5′-GATGTTGAGGTACAGAATCGT-3′ (SEQ ID NO:11); N-cadherin R: 5′-GGT CGG TCT GGA TGG CGA-3′ (SEQ ID NO:12); Snail F: 5′-CAGACCCACTCAGATGTCAA-3′ (SEQ ID NO:13); Snail R: 5′-CATAGTTAGTCACACCTCGT-3′ (SEQ ID NO:14); Vimentin F: 5′-GGA CTC GGT GGA CTT CTC-3′ (SEQ ID NO:15); Vimentin R: 5′-CGC ATC TCC TCC TCG TAG-3′ (SEQ ID NO:16). The PCR reaction cycles involved an initial denaturation at 94° C. for 10 min, followed by 36 cycles of 94° C., 1 min; 55° C., 30 sec for RANKL and RANK and 48° C., 1 min for OPG; 72° C., 1 min and a final extension at 72° C. for 10 min. For E-cadherin and N-cadherin gene amplification, the PCR reactions ran for a total of 32 cycles and the annealing temperature was 55° C. and 47° C., respectively for 30 sec. For Snail, Vimentin, and GAPDH amplification, the PCR reactions ran for a total of 28 cycles with annealing temperatures at 48° C. for 30 sec. The amplified PCR products were detected and analyzed on 1% agarose gel.
(§1) ARCaPE and LNCaP cells were cultured in 6-well plate and at 70% confluency, the cells were serum-starved overnight and then treated with 200 ng/ml of trimerized RANKL in serum-free and phenol-red free RPMI-1640 medium for three days before harvesting the cells. ARCaPE-RANKL and LNCaP-RANKL cells were cultured in 6-well plate and treated with 20 μM of LY294002, a PI3K inhibitor, 20 μM of SB203580, an inhibitor of MAP kinase reactivating kinase, or 2 μM of PS341 (bortezomib), a proteasome inhibitor, at 90% confluency for four hours. Cells were lysed in RIPA buffer containing 1× protease inhibitor cocktail (Thermo Fisher Scientific, Waltham, Mass.) and centrifuged, and the supernatants were collected and quantified using Bradford Protein Assay (Thermo Fisher Scientific, Waltham, Mass.). Cell lysates (20-30 μg) were resolved on a 4-12% Bis-Tris gradient SDS-PAGE (Invitrogen, Carlsbad, Calif.) under reducing conditions, followed by transblotting onto nitrocellulose membrane (BioRad, Hercules, Calif.). The membranes were blocked in 5% non-fat milk in PBST for one hour at room temperature (RT) and incubated with diluted primary antibodies in blocking buffer at 4° C. overnight. The primary antibodies used were RANKL, E-cadherin, vimentin, and OPG (Santa Cruz Biotechnology, Inc., Santa Cruz, Calif.), RANK (Amgen, Thousand Oaks, Calif.), N-cadherin (BD Transduction Laboratories, San Jose, Calif.), phosphor-Akt (Ser 473), Akt, phosphor-p38 (Thr180/Tyr182), p38, phosphor-ERK1/2 (Thr202/Tyr204), ERK, phosphor-SAPK/JNK (Thr183/Tyr185), JNK, phosphor-NF-κB p65 (Ser536), and NF-κB p65 (Cell Signaling Technology, Danvers, Mass.). The membranes were washed with PBST for three times before incubating with peroxidase-conjugated anti-mouse or anti-rabbit secondary antibodies at RT for one hour. After three times washing, the membranes were visualized using ECL Plus reagent (GE Healthcare, Piscataway, N.J.).

ARCaPE-RANKL cells = assay: Pathway inhibitor treatment followed by Western blot analysis, ARCaPE-RANKL; assay type: cell-based, human
Method: as §1

LNCaP-RANKL cells = assay: Pathway inhibitor treatment followed by Western blot analysis, LNCaP-RANKL; assay type: cell-based, human; conditions: 4 h
Method: ARCaPE and LNCaP cells were cultured in 6-well plate and at 70% confluency, the cells were serum-starved overnight and then treated with 200 ng/ml of trimerized RANKL in serum-free and phenol-red free RPMI-1640 medium for three days before harvesting the cells. ARCaPE-RANKL and LNCaP-RANKL cells were cultured in 6-well plate and treated with 20 μM of LY294002, a PI3K inhibitor, 20 μM of SB203580, an inhibitor of MAP kinase reactivating kinase, or 2 μM of PS341 (bortezomib), a proteasome inhibitor, at 90% confluency for four hours. Cells were lysed in RIPA buffer containing 1× protease inhibitor cocktail (Thermo Fisher Scientific, Waltham, Mass.) and centrifuged, and the supernatants were collected and quantified using Bradford Protein Assay (Thermo Fisher Scientific, Waltham, Mass.). Cell lysates (20-30 μg) were resolved on a 4-12% Bis-Tris gradient SDS-PAGE (Invitrogen, Carlsbad, Calif.) under reducing conditions, followed by transblotting onto nitrocellulose membrane (BioRad, Hercules, Calif.). The membranes were blocked in 5% non-fat milk in PBST for one hour at room temperature (RT) and incubated with diluted primary antibodies in blocking buffer at 4° C. overnight. […]

[2] = test system: RANKL promoter in ARCaPE, ARCaPM and ARCaPE-RANKL cells; assay: RANKL promoter reporter assay, ARCaP model; assay type: cell-based, human; conditions: vitamin D3 and PTH stimulation
Text: (§2) Because the inventors are interested in how RANKL is transcriptionally regulated, the inventors have constructed a 2.5 kb 5′ upstream region of RANKL promoter. The inventors used BAC clones (RP11-86N24) to amplify the promoter region of RANKL from human chromosome 13 contig. The whole promoter region (2.5 kb) was then cloned into pGL3 basic luciferase reporter vector. The inventors placed RANKL promoter reporter into ARCaPE,M, C4-2, and a positive cell line, SaOS-2 to examine the basic promoter activity. Then, the inventors stimulated the RANKL promoter by various growth factors, such as vitamin D3, PTH, and TGFβ.

[3] = test system: RANKL promoter in human osteosarcoma SaOS-2 cells; assay: RANKL promoter reporter assay, SaOS-2; assay type: cell-based; conditions: exogenous PTH and vitamin D3
Text: as §2

cMet in ARCaPE cells = assay: cMet expression and phosphorylation (Western blot), ARCaPE; assay type: cell-based, human; conditions: exogeneous RANKL or HGF treatment
cMet in LNCaP cells = assay: cMet expression and phosphorylation (Western blot), LNCaP; assay type: cell-based, human
[4] = test system: RANKL-expressing prostate cancer cells; assay: Stem cell and neuroendocrine marker expression; assay type: cell-based
[5] = test system: castration-resistant prostate cancer (CRPC) with bone metastasis; prostate or breast cancers; conditions: cited from earlier work
[6] = target: Flag-tagged RANKL stably expressed in LNCaP cells (LNCaP-RANKL); assay: cell-based or functional assay
[7] = target: GFP-tagged RANKL stably expressed in ARCaPE cells (ARCaPE-RANKL); assay: cell-based or functional assay
[8] = 20 μM LY294002 or 2 μM PS341, 4 h
[9] = men with clinical progressive prostate or breast cancers

Molecule: CCc1ccc(/C=C2/SC(=S)NC2=O)cc1 [10058-F4, reference compound]
- RANKL transcriptional activity in LNCaP-RANKL cells or LNCaP cells treated with RANKL ([1]; 20 μM cMyc inhibitor): significantly decreased
- RANKL protein expression in LNCaP-RANKL cells or LNCaP cells treated with RANKL (LNCaP cells): significantly decreased

Molecule: CC(C)C[C@H](NC(=O)[C@H](Cc1ccccc1)NC(=O)c1cnccn1)B(O)O [PS341, bortezomib]
- RANKL-induced EMT in ARCaPE-RANKL cells (ARCaPE-RANKL cells; 2 μM, 4 h): prevented
- E-cadherin expression in ARCaPE-RANKL cells (ARCaPE-RANKL cells; [8]): increased
- vimentin and RANKL expression in ARCaPE-RANKL cells (ARCaPE-RANKL cells; [8]): decreased
- RANKL-induced EMT in LNCaP-RANKL cells (LNCaP-RANKL cells; 2 μM): prevented

Molecule: C[S+]([O-])c1ccc(-c2nc(-c3ccncc3)c(-c3ccc(F)cc3)[nH]2)cc1 (stereo not shown) [SB203580]
- phosphorylated level of P65 in ARCaPE-RANKL cells (ARCaPE-RANKL cells; 20 μM, 4 h): reduction
- phosphorylated level of P65 in LNCaP-RANKL cells (LNCaP-RANKL cells; 20 μM): reduction

Molecule: C=C1CC[C@H](O)C/C1=C/C=C1\CCC[C@]2(C)[C@@H]([C@H](C)CCCC(C)C)CC[C@@H]12 [vitamin D3, reference compound]
- RANKL promoter activities in LNCaP cells [1]: induced
- RANKL promoter activities in ARCaPE cells [2]: induced
- RANKL transcriptional (promoter) activity in SaOS-2 cells [3]: induced; also recorded: up-regulated

Molecule: HGF: HGF, exogenous treatment activating c-Met
- cMet expression and phosphorylated level of cMet in ARCaPE cells (cMet in ARCaPE cells): significantly increased
- p-c-Met expression of the RANKL-induced c-Met (cMet in LNCaP cells; addition of HGF): increased
- cMet expression and phosphorylated level of cMet in LNCaP cells (cMet in LNCaP cells; exogeneous RANKL or HGF treatment): significantly increased

Molecule: denosumab
- expression of neuroendocrine markers [4]: blocked
- expression of stem cell markers [4]: antagonized
- osteonecrosis (undesirable side effects) ([5]; human, in vivo): reported in some patients
- patients' survival [5, 9]: improved
- skeletal related events [5, 9]: reduced
- progression of castration-resistant prostate cancer (CRPC) ([5]; patients with bone metastasis): delay or prevent

Molecule: recombinant osteoprotegerin (OPG)
- formation of mature osteoclasts (TRAP+ multinucleated cells) in co-culture of RAW264.7 with LNCaP-RANKL cells [6]: 2 fold

Molecule: recombinant osteoprotegerin (OPG) (receptor)
- formation of mature osteoclasts (TRAP+ multinucleated cells) in co-culture of RAW264.7 with ARCaPE-RANKL cells [7]: 2 fold

B1: parathyroid hormone (protein, UniProt P01270 32-115, looked up)
Parathyroid hormone: SVSEIQLMHNLGKHLNSMERVEWLRKKLQDVHNFVALGAPLAPRDAGSQRPRKKEDNVLVESHEKSLGEADKADVNVLTKAKSQ
modifications: Parathyroid hormone
- RANKL promoter activities in LNCaP cells [1]: induced
- RANKL promoter activities in ARCaPE cells [2]: induced
- RANKL transcriptional (promoter) activity in SaOS-2 cells [3]: induced; also recorded: up-regulated
